From the NIST ThermoML archive (doi:10.1021/acs.jced.5b00049)

Test: xn = mol fraction of the nth substance listed
Details: Liquid

CCCCCCCCCCCCCC [tetradecane] + O=C=O
Details | mass density [kg/m3]
312.99 K, 19070 kPa, x2 = 0.7534 | 819.95
313 K, 15040 kPa, x2 = 0.7534 | 811.66
313.01 K, 17010 kPa, x2 = 0.7534 | 815.79
313.01 K, 18060 kPa, x2 = 0.7534 | 817.99
313.05 K, 10040 kPa, x2 = 0.7534 | 799.71
313.05 K, 11940 kPa, x2 = 0.7534 | 804.49
313.07 K, 10010 kPa, x2 = 0.2469 | 761.87
313.08 K, 12050 kPa, x2 = 0.2469 | 763.39
313.08 K, 13990 kPa, x2 = 0.2469 | 764.87
313.08 K, 16020 kPa, x2 = 0.2469 | 766.36
313.09 K, 18000 kPa, x2 = 0.2469 | 767.75
313.11 K, 19000 kPa, x2 = 0.2469 | 768.47
313.12 K, 13940 kPa, x2 = 0.7534 | 809.04
313.12 K, 19060 kPa, x2 = 0.8773 | 833.41
313.13 K, 16010 kPa, x2 = 0.7534 | 813.59
313.14 K, 13040 kPa, x2 = 0.7534 | 806.93
313.16 K, 11930 kPa, x2 = 0.5241 | 778.74
313.16 K, 19060 kPa, x2 = 0.5241 | 785.72
313.17 K, 12990 kPa, x2 = 0.8773 | 810.26
313.17 K, 13930 kPa, x2 = 0.5241 | 780.74
313.17 K, 14050 kPa, x2 = 0.8773 | 813.95
313.18 K, 16020 kPa, x2 = 0.8773 | 822.71
313.18 K, 17010 kPa, x2 = 0.8773 | 826.33
313.19 K, 9970 kPa, x2 = 0.8773 | 799.39
313.19 K, 10110 kPa, x2 = 0.5241 | 776.82
313.19 K, 18040 kPa, x2 = 0.8773 | 829.7
313.2 K, 11990 kPa, x2 = 0.8773 | 806.52
313.21 K, 18060 kPa, x2 = 0.5241 | 784.76
313.23 K, 15010 kPa, x2 = 0.8773 | 818.7
313.35 K, 16050 kPa, x2 = 0.5241 | 782.84
323.11 K, 10980 kPa, x2 = 0.8773 | 783.24
323.11 K, 14020 kPa, x2 = 0.2469 | 757.81
323.11 K, 19020 kPa, x2 = 0.8773 | 809.81
323.12 K, 16020 kPa, x2 = 0.2469 | 759.35
323.14 K, 10120 kPa, x2 = 0.2469 | 754.69
323.14 K, 12060 kPa, x2 = 0.2469 | 756.22
323.14 K, 13020 kPa, x2 = 0.8773 | 788.73
323.14 K, 14050 kPa, x2 = 0.8773 | 791.99
323.14 K, 16040 kPa, x2 = 0.8773 | 799.2
323.14 K, 17040 kPa, x2 = 0.8773 | 801.18
323.14 K, 18060 kPa, x2 = 0.8773 | 805.9
323.14 K, 18980 kPa, x2 = 0.2469 | 761.61
323.15 K, 10070 kPa, x2 = 0.7534 | 782.23
323.15 K, 12030 kPa, x2 = 0.7534 | 787.2
323.15 K, 12050 kPa, x2 = 0.8773 | 786.07
323.15 K, 13000 kPa, x2 = 0.7534 | 789.82
323.15 K, 14020 kPa, x2 = 0.7534 | 791.84
323.15 K, 15060 kPa, x2 = 0.7534 | 794.75
323.15 K, 16040 kPa, x2 = 0.7534 | 796.67
323.15 K, 17010 kPa, x2 = 0.7534 | 799.28
323.15 K, 18070 kPa, x2 = 0.7534 | 801.5
323.15 K, 19020 kPa, x2 = 0.7534 | 803.65
323.16 K, 15050 kPa, x2 = 0.8773 | 795.16
323.19 K, 17960 kPa, x2 = 0.2469 | 760.81
323.21 K, 16080 kPa, x2 = 0.5241 | 773.72
323.22 K, 18050 kPa, x2 = 0.5241 | 775.72
323.22 K, 19040 kPa, x2 = 0.5241 | 776.7
323.23 K, 10030 kPa, x2 = 0.5241 | 767.22
323.23 K, 12040 kPa, x2 = 0.5241 | 769.42
323.23 K, 13980 kPa, x2 = 0.5241 | 771.51
333.07 K, 10050 kPa, x2 = 0.7534 | 764.82
333.07 K, 14030 kPa, x2 = 0.7534 | 774.55
333.07 K, 17060 kPa, x2 = 0.7534 | 782.56
333.07 K, 18060 kPa, x2 = 0.7534 | 784.44
333.09 K, 10100 kPa, x2 = 0.5241 | 757.94
333.11 K, 13040 kPa, x2 = 0.7534 | 771.85
333.11 K, 16040 kPa, x2 = 0.2469 | 752.33
333.11 K, 18060 kPa, x2 = 0.5241 | 766.9
333.11 K, 18060 kPa, x2 = 0.8773 | 785.49
333.12 K, 15020 kPa, x2 = 0.7534 | 777.38
333.12 K, 16040 kPa, x2 = 0.7534 | 779.31
333.13 K, 10010 kPa, x2 = 0.2469 | 747.3
333.13 K, 13970 kPa, x2 = 0.2469 | 750.65
333.13 K, 19050 kPa, x2 = 0.8773 | 788.14
333.13 K, 19080 kPa, x2 = 0.5241 | 767.96
333.14 K, 16050 kPa, x2 = 0.8773 | 779.75
333.14 K, 17040 kPa, x2 = 0.8773 | 782.59
333.15 K, 11930 kPa, x2 = 0.5241 | 760.02
333.15 K, 12060 kPa, x2 = 0.2469 | 749.05
333.15 K, 15990 kPa, x2 = 0.5241 | 764.66
333.15 K, 17980 kPa, x2 = 0.2469 | 753.84
333.16 K, 18980 kPa, x2 = 0.2469 | 754.7
333.17 K, 12050 kPa, x2 = 0.7534 | 769.75
333.17 K, 19050 kPa, x2 = 0.7534 | 786.81
333.18 K, 14030 kPa, x2 = 0.8773 | 774.07
333.19 K, 13020 kPa, x2 = 0.8773 | 771.46
333.2 K, 13970 kPa, x2 = 0.5241 | 762.35
333.22 K, 15040 kPa, x2 = 0.8773 | 776.33
343.18 K, 13030 kPa, x2 = 0.7534 | 757.6
343.2 K, 14070 kPa, x2 = 0.7534 | 759.71
343.22 K, 10080 kPa, x2 = 0.5241 | 748.36
343.24 K, 18020 kPa, x2 = 0.2469 | 746.97
343.25 K, 10080 kPa, x2 = 0.2469 | 739.8
343.25 K, 12000 kPa, x2 = 0.2469 | 741.71
343.25 K, 13970 kPa, x2 = 0.5241 | 753.12
343.26 K, 11930 kPa, x2 = 0.5241 | 750.66
343.26 K, 17070 kPa, x2 = 0.8773 | 763.58
343.27 K, 16010 kPa, x2 = 0.2469 | 745.25
343.27 K, 19050 kPa, x2 = 0.2469 | 747.79
343.28 K, 16050 kPa, x2 = 0.8773 | 759.7
343.28 K, 18030 kPa, x2 = 0.7534 | 768.86
343.29 K, 11990 kPa, x2 = 0.7534 | 755.9
343.29 K, 15010 kPa, x2 = 0.8773 | 756.06
343.3 K, 18040 kPa, x2 = 0.8773 | 766.93
343.32 K, 15970 kPa, x2 = 0.7534 | 764.11
343.32 K, 19050 kPa, x2 = 0.8773 | 770.12
343.34 K, 14060 kPa, x2 = 0.2469 | 743.54
343.34 K, 16930 kPa, x2 = 0.7534 | 766.37
343.36 K, 18040 kPa, x2 = 0.5241 | 757.81
343.37 K, 15000 kPa, x2 = 0.7534 | 761.76
343.37 K, 15990 kPa, x2 = 0.5241 | 755.45
343.37 K, 19030 kPa, x2 = 0.7534 | 770.9
343.39 K, 19080 kPa, x2 = 0.5241 | 758.96
353.36 K, 9980 kPa, x2 = 0.5241 | 738.86
353.36 K, 12050 kPa, x2 = 0.7534 | 743.36
353.39 K, 11960 kPa, x2 = 0.5241 | 741.42
353.39 K, 17030 kPa, x2 = 0.7534 | 753.15
353.39 K, 18060 kPa, x2 = 0.5241 | 748.96
353.4 K, 18070 kPa, x2 = 0.2469 | 741.03
353.41 K, 13000 kPa, x2 = 0.7534 | 744.77
353.43 K, 11990 kPa, x2 = 0.2469 | 735.13
353.43 K, 14020 kPa, x2 = 0.5241 | 744.02
353.43 K, 16060 kPa, x2 = 0.5241 | 746.56
353.44 K, 19060 kPa, x2 = 0.5241 | 750.06
353.46 K, 15040 kPa, x2 = 0.7534 | 748.68
353.46 K, 15990 kPa, x2 = 0.7534 | 750.82
353.46 K, 18010 kPa, x2 = 0.8773 | 751.14
353.46 K, 18040 kPa, x2 = 0.7534 | 755.21
353.47 K, 14010 kPa, x2 = 0.7534 | 746.82
353.47 K, 19020 kPa, x2 = 0.2469 | 741.82
353.47 K, 19040 kPa, x2 = 0.8773 | 754.52
353.48 K, 9970 kPa, x2 = 0.2469 | 733.1
353.48 K, 14000 kPa, x2 = 0.2469 | 737.01
353.48 K, 17020 kPa, x2 = 0.8773 | 747.37
353.52 K, 16030 kPa, x2 = 0.2469 | 738.93
353.54 K, 18990 kPa, x2 = 0.7534 | 756.97
